From patent US10676462B2, “Quinoline derivative” (ONO PHARMACEUTICAL CO., LTD., priority 2013, dated 2020)

Columns and labels:
Ba/F3 Axl = molecular target: T1, Ba/F3 Axl (Homo sapiens, UniProt P30530); assay: Proliferation suppression rate using mouse pro-B cell line (Ba/F3 Axl) stably expressing Axl; type: cell-based; details: Ba/F3 Axl cells, 48 hours, CellTiter-Glo; read-out: IC50 value, proliferation suppression of Ba/F3 Axl
T1 sequence (P30530 1-894): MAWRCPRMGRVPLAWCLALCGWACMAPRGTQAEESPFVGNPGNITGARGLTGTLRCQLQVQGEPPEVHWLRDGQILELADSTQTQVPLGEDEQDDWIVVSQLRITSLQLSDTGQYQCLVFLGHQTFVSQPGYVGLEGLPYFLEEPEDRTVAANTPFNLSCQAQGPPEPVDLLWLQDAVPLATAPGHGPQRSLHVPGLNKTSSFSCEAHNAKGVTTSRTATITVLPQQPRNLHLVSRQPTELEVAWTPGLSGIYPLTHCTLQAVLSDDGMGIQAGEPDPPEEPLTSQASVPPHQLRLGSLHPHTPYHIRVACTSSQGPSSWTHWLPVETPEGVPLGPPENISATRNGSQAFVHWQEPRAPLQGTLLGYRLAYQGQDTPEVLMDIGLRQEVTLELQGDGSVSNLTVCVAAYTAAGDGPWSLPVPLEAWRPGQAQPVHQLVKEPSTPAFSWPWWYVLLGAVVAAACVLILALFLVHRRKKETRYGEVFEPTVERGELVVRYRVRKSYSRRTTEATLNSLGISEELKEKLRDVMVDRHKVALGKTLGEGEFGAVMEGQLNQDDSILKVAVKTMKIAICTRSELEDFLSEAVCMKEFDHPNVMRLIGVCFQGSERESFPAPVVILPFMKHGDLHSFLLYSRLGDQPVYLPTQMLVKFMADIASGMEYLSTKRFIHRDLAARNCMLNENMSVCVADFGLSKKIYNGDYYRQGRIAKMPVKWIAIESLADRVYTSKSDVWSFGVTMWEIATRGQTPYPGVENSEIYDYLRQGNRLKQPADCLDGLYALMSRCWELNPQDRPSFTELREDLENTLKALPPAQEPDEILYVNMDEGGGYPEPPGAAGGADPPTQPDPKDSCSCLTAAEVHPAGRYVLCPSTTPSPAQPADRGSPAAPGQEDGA
Description: Biological Example 2: Measurement of Proliferation Suppression Rate by Using Mouse Pro-B Cell Line (Ba/F3 Axl) Stably Expressing Axl
A 0.1 mmol/L DMSO solution of the test compound was dispensed into a 96-well plate, and a 3-fold dilution series was prepared using DMSO. DMSO solutions of test compounds, having various concentrations, were further 500-fold diluted with a RPMI1640 medium (containing 10% HI-FBS, 1% penicillin) and a diluted solution of the test compound having […] with respect to the final concentration was prepared. In each well of the 96-well plate (BD Biosciences) for measurement, 50 μL of a RPMI medium was added to the Blank group, 50 μL of a RPMI medium containing 0.2% DMSO was added to the medium group, and 50 μL of the diluted solution of the test compound was added to the test compound group, respectively. Ba/F3 Axl was diluted with a medium to have a density of 2×10^5 cells/mL to prepare a cell suspension. In each well of the 96-well plate for measurement, 50 μL each of the RPMI medium was added to the Blank group, and 50 μL each of the cell suspension to the medium group and the test compound group, respectively, and the groups were stood still at 37° C. at 5% CO2 for 48 hours. After standing still, Relative Light Unit (RLU) was measured by using CELLTITER-GLO (registered trademark) LUMINESCENT CELL VIABILITY ASSAY (Promega). The measurement was carried out according to the attached instruction. To each well, 100 μL each of light-emitting solution was added. The plate was stirred at room temperature for 3 min and then stool still at room temperature with light shielded for 10 min, and RLU was measured by using Microplate Reader (SpectraMax M5e, Molecular Devices). The average values of RLU of the Blank group and the medium group were respectively calculated, and the proliferation suppression rate of the test compound group was calculated. Proliferation suppression rate (%)={1−(RLU of test compound group−A)/(B−A)}×100 [Math. 2] A: average value of RLU of Blank group B: average value of RLU of medium group
A value of 50% inhibition rate (IC50 value) of the test compound was calculated from the inhibition curve based on the inhibition rate in each concentration of the test compound.

Axl enzyme = molecular target: T2, Axl enzyme (Homo sapiens, UniProt P30530); assay: Measurement of an Axl inhibitory activity (LanthaScreen TR-FRET, in vitro test); type: biochemical
T2 construct: a solution containing 400 ng/mL Axl enzyme was prepared
T2 sequence (P30530 26-894): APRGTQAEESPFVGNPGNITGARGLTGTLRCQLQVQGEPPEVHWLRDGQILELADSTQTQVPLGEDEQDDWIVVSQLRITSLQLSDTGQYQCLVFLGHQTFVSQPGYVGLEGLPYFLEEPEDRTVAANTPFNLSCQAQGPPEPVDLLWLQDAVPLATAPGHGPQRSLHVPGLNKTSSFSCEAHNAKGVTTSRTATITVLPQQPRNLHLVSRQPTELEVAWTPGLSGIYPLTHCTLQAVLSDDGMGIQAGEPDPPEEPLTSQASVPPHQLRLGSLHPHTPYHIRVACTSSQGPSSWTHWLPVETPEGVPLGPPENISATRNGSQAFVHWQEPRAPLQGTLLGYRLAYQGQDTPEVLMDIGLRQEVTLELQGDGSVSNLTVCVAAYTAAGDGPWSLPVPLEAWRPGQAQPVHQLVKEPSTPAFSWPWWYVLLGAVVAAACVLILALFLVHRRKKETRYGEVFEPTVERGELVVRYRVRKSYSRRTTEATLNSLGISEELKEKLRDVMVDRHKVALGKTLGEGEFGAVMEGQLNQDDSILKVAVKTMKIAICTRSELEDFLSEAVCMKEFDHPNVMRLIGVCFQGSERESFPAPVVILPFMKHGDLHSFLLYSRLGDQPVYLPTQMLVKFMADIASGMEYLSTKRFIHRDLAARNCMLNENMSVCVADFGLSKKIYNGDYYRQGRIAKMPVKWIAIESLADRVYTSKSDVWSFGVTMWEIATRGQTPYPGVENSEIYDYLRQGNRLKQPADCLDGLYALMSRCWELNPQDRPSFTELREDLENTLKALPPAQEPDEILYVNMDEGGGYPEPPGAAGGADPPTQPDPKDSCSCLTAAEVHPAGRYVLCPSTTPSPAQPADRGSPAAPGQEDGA
Description: Biological Example 1: Measurement of an Axl Inhibitory Activity (In Vitro Test)
An Axl enzyme inhibitory activity was measured by using LanthaScreen (registered trademark) system (Invitrogen) based on the attached instruction. The reagents used are shown below.
Reaction buffer solution: a solution containing 50 mmol/L HEPES (pH7.5), 0.01% Brij35, 10 mmol/L MgCl2 and 1 mmol/L EGTA was prepared by using purified water.
Test substance solution: a solution containing a test compound of 5-fold concentration with respect to the final concentration was prepared by 20-fold diluting a DMSO solution of test compound of each concentration with the reaction buffer solution.
Enzyme solution: a solution containing 400 ng/mL Axl enzyme was prepared by using the reaction buffer solution.
Substrate solution: a solution containing 45 μmmol/L ATP and 500 nmmol/L Fluorescein-Poly GT (Invitrogen) was prepared by using the reaction buffer solution.
Detection solution: a solution containing 20 mM EDTA and 4 nM PY20 (Invitrogen) was prepared by using Dilution B (Invitrogen).
A 10 mmol/L DMSO solution of the test compound was dispensed into a 96-well plate (Nunc), and, furthermore, a 3-fold dilution series was prepared using DMSO. In each well of the 96-well plate for measurement, 5 μL each of the reaction buffer solution containing DMSO was added to a Blank group and a medium group, and 5 μL of the test substance solution was added to the test substance group, respectively. Next, 10 μL/well of the reaction buffer solution was added to the Blank group, and 10 μL/well each of the enzyme solution was added to the medium group and the test compound group, followed by stirring at room temperature for 10 min. After the completion of stirring, 10 μL each of the substrate solution was added into each well, followed by stirring at room temperature with light shielded for one hour. After the completion of reaction, 25 μL each of the detection solution was added to each well, and stood still at room temperature with light shielded for 30 min. After standing sill, fluorescence intensity at 520 nm and 495 nm at the time of irradiation with exciting light of 340 nm was measured by using Analyst GT (Molecular Devices). The phosphorylation of the artificial substrate was quantified by Time-resolved Fluorescence Resonance Energy Transfer (TR-FRET). TR-FRET ratio was calculated by dividing 520 nm fluorescence signal by 495 nm fluorescence signal for each well, and the inhibition rate (%) in the test compound group was calculated based on the following mathematical formula. Inhibition rate (%)=[1−(TR-FRET ratio of test compound group−A)/(B−A)×100 [Math. 1] A: average value of TR-FRET ratios of Blank group B: average value of TR-FRET ratios of medium group
Values of 50% inhibition rate (IC50 values) of the test compound were calculated from the inhibition curve based on the inhibition rate of the test compounds in each concentration.

KDR = KDR (Homo sapiens, UniProt P35968); assay: Evaluation of kinase selectivity (in vitro test), KDR; type: biochemical; details: Axl selective inhibitory activity with respect to KDR, ratio of IC50 values
Description: Biological Example 3: Evaluation of Kinase Selectivity (In Vitro Test)
Similar to Biological Example 1, values of 50% inhibition rate (IC50 value) with respect to various kinases (KDR, DDR1, FLT4, and ROS) of the test compound were measured. The Axl selective inhibitory activity of the test compound with respect to kinases, for example, KDR, was calculated based on the above-mentioned ratio of the IC50 values. As the test compound, for the compound of the present invention, the compounds of Examples 5, 5(1), 17(2), and 23(2) were used, and for the comparative compounds, the compound of Example 5 (Comparative compound C) and the compound of Example 92 (Comparative compound D) described in Patent Literature 5, having the following structure, were used.

KDR, sequence (P35968 20-1356): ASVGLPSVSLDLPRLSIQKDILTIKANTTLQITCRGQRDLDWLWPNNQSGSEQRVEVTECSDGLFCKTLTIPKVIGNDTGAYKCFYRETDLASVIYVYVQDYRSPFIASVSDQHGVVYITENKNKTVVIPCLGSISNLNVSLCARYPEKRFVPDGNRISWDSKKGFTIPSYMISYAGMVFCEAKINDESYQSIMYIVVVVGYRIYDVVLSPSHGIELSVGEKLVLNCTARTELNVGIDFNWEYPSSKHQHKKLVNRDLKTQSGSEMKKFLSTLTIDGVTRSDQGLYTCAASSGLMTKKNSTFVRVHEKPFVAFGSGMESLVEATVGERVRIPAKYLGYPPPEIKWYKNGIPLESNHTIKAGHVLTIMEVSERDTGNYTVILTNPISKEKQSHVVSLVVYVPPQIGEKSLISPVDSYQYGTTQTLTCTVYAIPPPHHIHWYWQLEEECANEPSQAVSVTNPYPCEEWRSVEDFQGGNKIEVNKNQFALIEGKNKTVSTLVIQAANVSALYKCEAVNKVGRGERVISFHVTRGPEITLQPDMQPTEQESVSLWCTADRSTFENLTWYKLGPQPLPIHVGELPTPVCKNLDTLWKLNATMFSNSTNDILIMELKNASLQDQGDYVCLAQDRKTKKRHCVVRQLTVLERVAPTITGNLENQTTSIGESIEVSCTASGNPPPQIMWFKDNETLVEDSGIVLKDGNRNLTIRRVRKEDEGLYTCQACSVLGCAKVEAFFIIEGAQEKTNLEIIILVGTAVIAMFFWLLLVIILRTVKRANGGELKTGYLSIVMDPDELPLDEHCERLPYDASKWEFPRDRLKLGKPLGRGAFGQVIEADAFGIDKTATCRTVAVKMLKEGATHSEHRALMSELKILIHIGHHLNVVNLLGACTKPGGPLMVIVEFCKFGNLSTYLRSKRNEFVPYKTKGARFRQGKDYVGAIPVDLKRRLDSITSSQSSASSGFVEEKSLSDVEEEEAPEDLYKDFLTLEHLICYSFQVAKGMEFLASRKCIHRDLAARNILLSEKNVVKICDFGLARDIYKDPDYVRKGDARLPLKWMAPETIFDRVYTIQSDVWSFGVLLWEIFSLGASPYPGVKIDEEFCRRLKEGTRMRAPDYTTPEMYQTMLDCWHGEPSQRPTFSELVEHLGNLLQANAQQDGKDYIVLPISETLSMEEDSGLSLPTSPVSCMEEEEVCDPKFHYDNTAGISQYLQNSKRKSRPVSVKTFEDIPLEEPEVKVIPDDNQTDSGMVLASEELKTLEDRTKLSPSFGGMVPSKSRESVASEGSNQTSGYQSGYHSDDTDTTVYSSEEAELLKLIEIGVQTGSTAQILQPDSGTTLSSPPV

Compound | GI50 (Ba/F3 Axl) | IC50 (Axl enzyme) | KDR [IC50]/Axl [IC50] (KDR)
COc1cc2nccc(Oc3ccc(NC(=O)c4nn(C)c5ccccc45)cc3F)c2cc1OC [Comparative compound A, reference compound] | 620 nM | > 10000 nM | 
COc1cc2nccc(Oc3ccc(NC(=O)c4cc5ccccc5[nH]c4=O)cc3)c2cc1OC [Comparative compound B, reference compound] | > 10000 nM | > 10000 nM | 
COc1cc2c(Oc3ccc(NC(=O)c4cccc5cccnc45)cc3F)ccnc2cc1OCCCN1CCOCC1 [Comparative compound C, reference compound] |  |  | about 0.2 times
COc1cc2c(Oc3ccc(NC(=O)c4ccnn(-c5ccc(F)cc5)c4=O)cn3)ccnc2cc1OCCCN1CCOCC1 [Comparative compound D, reference compound] |  |  | about 28 times
COc1cc2nccc(Oc3ccc(NC(=O)c4cc5c(n(CC(C)(C)C)c4=O)CCCC5=O)nc3)c2cc1OC [Example 5(6), N-{5-[(6,7-dimethoxy-4-quinolinyl)oxy]-2-pyridinyl}-1-(2,2-dimethylpropyl)-2,5-dioxo-1,2,5,6,7,8-hexahydro-3-quinolinecarboxamide] | 7.8 nM | 4.3 nM | 
